# Assay results reported in patent US20100298141A1, “SUBSTITUTED PYRIDINE N-OXIDE HERBICIDES” (E. I. DU PONT DE NEMOURS AND COMPANY, priority 2007, published 2010).
# Legend:
# Italian ryegrass = assay: Test C pre-/postemergence test; assay type: in vivo, Lolium multiflorum; settings: for Plant response rating, Ryegrass, Italian: scale 0 to 100, 0 no effect, 100 complete control
# Method in brief: (§1)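 Compounds in a non-phytotoxic solvent with surfactant applied preemergence to seeded pots and, at the same time, postemergence to plants 2–18 cm tall (1- to 4-leaf stage). Paddy tests: pots flooded to 3 cm, compound applied into the water, depth held throughout.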
# green foxtail = assay: Test C pre-/postemergence test; assay type: in vivo, Setaria viridis; settings: for Plant response rating, Foxtail, Green: scale 0 to 100, 0 no effect, 100 complete control
# Method in brief: as §1
# purple nutsedge = assay: Test F preemergence test; assay type: in vivo, Cyperus rotundus; settings: scale 0 to 100; for Purple Nutsedge plant response rating: 62 g ai/ha
# Method in brief: (§2)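 Compounds in a non-phytotoxic solvent formulation with surfactant were applied before emergence after sowing, or, for sugarcane, also postemergence. Evaluation was visual, against controls, after 14 to 21 greenhouse days.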
# johnsongrass = assay: Test F preemergence test; assay type: in vivo, Sorghum halepense; settings: scale 0 to 100; for Johnsongrass plant response rating: 62 g ai/ha
# Method in brief: as §2
# goosegrass = assay: Test F preemergence test; assay type: in vivo, Eleusine indica; settings: scale 0 to 100; for Goosegrass plant response rating: 62 g ai/ha
# Method in brief: as §2
# velvetleaf = assay: Test A pre-/postemergence greenhouse test; assay type: in vivo, Abutilon theophrasti; settings: for Velvetleaf plant response rating: 0 to 100 scale; for Plant response rating, Velvetleaf: 0 to 100 scale where 0 is no effect and 100 is complete control
# Method in brief: (§3)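 Visual injury ratings, made relative to untreated controls roughly ten days after treatment, cover both preemergence and postemergence application. Compounds in a surfactant-containing non-phytotoxic solvent were sprayed onto the soil surface after sowing and, simultaneously, onto young plants at the one- to two-leaf stage.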
# dallisgrass = assay: Test F preemergence test; assay type: in vivo, Paspalum dilatatum; settings: scale 0 to 100; for Dallisgrass plant response rating: 62 g ai/ha
# Method in brief: as §2
# barnyardgrass = assay: Test A pre-/postemergence greenhouse test; assay type: in vivo, Echinochloa crus-galli; settings: for Barnyardgrass plant response rating: 0 to 100 scale; for Plant response rating, Barnyardgrass: 0 to 100 scale where 0 is no effect and 100 is complete control
# Method in brief: as §3
# broadleaf signalgrass = assay: Test F preemergence test; assay type: in vivo, Brachiaria platyphylla; settings: scale 0 to 100; for Signalgrass plant response rating: 62 g ai/ha
# Method in brief: as §2
# itchgrass = assay: Test F preemergence test; assay type: in vivo, Rottboellia cochinchinensis; settings: scale 0 to 100; for Itchgrass plant response rating: 62 g ai/ha
# Method in brief: as §2
# Virginia dayflower = assay: Test F preemergence test; assay type: in vivo, Commelina virginica; settings: scale 0 to 100; for Dayflower plant response rating: 62 g ai/ha
# From the text: (§4) Seeds of plant species selected from bermudagrass (Cynodon dactylon), Surinam grass (Brachiaria decumbens), large crabgrass (Digitaria sanguinalis), green foxtail (Setaria viridis), goosegrass (Eleusine indica), johnsongrass (Sorghum halepense), kochia (Kochia scoparia), pitted morningglory (Ipomoea lacunosa), purple nutsedge (Cyperus rotundus), common ragweed (Ambrosia elation), mustard (Brassica nigra), guineagrass (Panicum maximum), […] (Paspalum dilatatum), barnyardgrass (Echinochloa crus-galli), southern sandbur (Cenchrus echinatus), common sowthistle (Sonchus oleraceous), prickly […] spinosa), Italian ryegrass (Lolium multiflorum), common purslane (Portulaca oleracea), broadleaf signalgrass (Brachiaria platyphylla), common groundsel (Senecio vulgaris), common chickweed (Stellaria media), Virginia dayflower (Commelina virginica), annual bluegrass (Poa annua), naked crabgrass (Digitaria nuda), […] cochinchinensis), quackgrass (Elytrigia repens), Canada horseweed (Conyza canadensis), field bindweed (Convolvulus arvensis), […] (Bidens bipinnata), common mallow (Malva sylvestris), Russian thistle (Salsola kali), and sugarcane (Saccharum officinarum) were planted and treated preemergence with test chemicals formulated in a non-phytotoxic solvent mixture which included a surfactant. At a different time, sugarcane was treated with postemergence applications of some of the test chemicals formulated in the same manner. Plants were approximately 3- to 4-leaf stage for the postemergence treatments. Treated plants and controls were maintained in a greenhouse for 14 to 21 days, after which time all species were compared to controls and visually evaluated. […] A dash (-) response means no test result.
# kochia = assay: Test F preemergence test; assay type: in vivo, Kochia scoparia; settings: scale 0 to 100; for Kochia plant response rating: 62 g ai/ha
# Method in brief: as §2
# common groundsel = assay: Test F preemergence test; assay type: in vivo, Senecio vulgaris; settings: scale 0 to 100; for Groundsel plant response rating: 62 g ai/ha
# From the text: as §4
# [1] = Postemergence, 125 g ai/ha, 0 is no effect, 100 is complete control
# [2] = Postemergence, 500 g ai/ha, 0 is no effect, 100 is complete control
# [3] = Preemergence, 125 g ai/ha, 0 no effect, 100 complete control
# [4] = 31 g ai/ha, Preemergence, scale 0 to 100
# [5] = 62 g ai/ha, preemergence, scale 0 (no effect) to 100 (complete control)
# [6] = preemergence, 125 g ai/ha, scale 0 (no effect) to 100 (complete control)
smiles,measurement,setting,value
Cn1nc(C(F)(F)F)c(C[S+]([O-])c2ccc(Cl)c[n+]2[O-])c1OC(F)F (stereo not drawn) [Compound 6],"Plant response rating (0 to 100), Ryegrass, Italian","Italian ryegrass; Postemergence, 31 g ai/ha",0
same,"Plant response rating (0 to 100), Ryegrass, Italian","Italian ryegrass; Postemergence, 62 g ai/ha",50
same,"Plant response rating, Ryegrass, Italian","Italian ryegrass; Postemergence, 125 g ai/ha",85
same,"Plant response rating, Ryegrass, Italian","Italian ryegrass; Postemergence, 250 g ai/ha",90
same,"Plant response rating (0 to 100), Foxtail, Green","green foxtail; Postemergence, 31 g ai/ha",30
same,"Plant response rating, Foxtail, Green","green foxtail; Postemergence, 62 g ai/ha",55
same,"Plant response rating, Foxtail, Green","green foxtail; Postemergence, 125 g ai/ha",70
same,"Plant response rating, Foxtail, Green","green foxtail; Postemergence, 250 g ai/ha",70
same,"Plant response rating, Purple Nutsedge","purple nutsedge; 8 g ai/ha, preemergence",0
same,Purple Nutsedge plant response rating,purple nutsedge; Preemergence,75
same,"Plant response rating, Purple Nutsedge","purple nutsedge; Preemergence, 16 g ai/ha",20
same,"Plant response rating, Purple Nutsedge","purple nutsedge; Preemergence, 31 g ai/ha",20
same,"Plant response rating, Johnsongrass","johnsongrass; 8 g ai/ha, preemergence",75
same,Johnsongrass plant response rating,johnsongrass; Preemergence,95
same,"Plant response rating, Johnsongrass","johnsongrass; Preemergence, 16 g ai/ha",75
same,"Plant response rating, Johnsongrass","johnsongrass; Preemergence, 31 g ai/ha",95
same,"Plant response rating, Goosegrass","goosegrass; 8 g ai/ha, preemergence",20
same,Goosegrass plant response rating,goosegrass; Preemergence,95
same,"Plant response rating, Goosegrass","goosegrass; Preemergence, 16 g ai/ha",75
same,"Plant response rating, Goosegrass","goosegrass; Preemergence, 31 g ai/ha",90
same,Velvetleaf plant response rating,velvetleaf; [1],50
same,Velvetleaf plant response rating,velvetleaf; [2],80
same,Velvetleaf plant response rating,velvetleaf; [3],90
same,"Plant response rating, Velvetleaf","velvetleaf; Preemergence, 500 g ai/ha",100
same,"Plant response rating, Dallisgrass","dallisgrass; 8 g ai/ha, preemergence",0
same,Dallisgrass plant response rating,dallisgrass; Preemergence,70
same,"Plant response rating, Dallisgrass","dallisgrass; Preemergence, 16 g ai/ha",20
same,"Plant response rating, Dallisgrass","dallisgrass; Preemergence, 31 g ai/ha",50
same,Barnyardgrass plant response rating,barnyardgrass; [1],80
same,Barnyardgrass plant response rating,barnyardgrass; [2],90
same,Barnyardgrass plant response rating,barnyardgrass; [3],100
same,"Plant response rating, Barnyardgrass","barnyardgrass; Preemergence, 500 g ai/ha",100
same,"Plant response rating, Signalgrass","broadleaf signalgrass; 8 g ai/ha, preemergence",0
same,"Plant response rating, Signalgrass","broadleaf signalgrass; 16 g ai/ha, preemergence",50
same,Signalgrass plant response rating,broadleaf signalgrass; Preemergence,95
same,"Plant response rating, Signalgrass","broadleaf signalgrass; Preemergence, 31 g ai/ha",65
same,"Plant response rating, Itchgrass","itchgrass; 8 g ai/ha, preemergence",0
same,Itchgrass plant response rating,itchgrass; Preemergence,95
same,"Plant response rating, Itchgrass","itchgrass; Preemergence, 16 g ai/ha",60
same,"Plant response rating, Itchgrass","itchgrass; Preemergence, 31 g ai/ha",75
same,"Plant response rating, Dayflower","Virginia dayflower; 8 g ai/ha, preemergence",0
same,Dayflower plant response rating,Virginia dayflower; Preemergence,100
same,"Plant response rating, Dayflower","Virginia dayflower; Preemergence, 16 g ai/ha",90
same,"Plant response rating, Dayflower","Virginia dayflower; Preemergence, 31 g ai/ha",90
same,"Plant response rating, Kochia","kochia; 8 g ai/ha, preemergence",0
same,Kochia plant response rating,kochia; Preemergence,60
same,"Plant response rating, Kochia","kochia; Preemergence, 16 g ai/ha",0
same,"Plant response rating, Kochia","kochia; Preemergence, 31 g ai/ha",0
same,"Plant response rating, Groundsel","common groundsel; 8 g ai/ha, preemergence",0
same,Groundsel plant response rating,common groundsel; Preemergence,75
same,"Plant response rating, Groundsel","common groundsel; Preemergence, 16 g ai/ha",50
same,"Plant response rating, Groundsel","common groundsel; Preemergence, 31 g ai/ha",75
CC(c1c(C(F)(F)F)nn(C)c1OC(F)F)S(=O)(=O)c1cccc[n+]1[O-] (stereo not drawn) [Compound 5],"Ryegrass, Italian plant response rating",Italian ryegrass; [4],80
same,"Ryegrass, Italian plant response rating",Italian ryegrass; [5],100
same,"Plant response rating (0 to 100), Ryegrass, Italian","Italian ryegrass; Postemergence, 31 g ai/ha",0
same,"Plant response rating (0 to 100), Ryegrass, Italian","Italian ryegrass; Postemergence, 62 g ai/ha",0
same,"Plant response rating, Ryegrass, Italian","Italian ryegrass; Postemergence, 125 g ai/ha",40
same,"Plant response rating, Ryegrass, Italian","Italian ryegrass; Postemergence, 250 g ai/ha",50
same,"Plant response rating (0 to 100), Ryegrass, Italian","Italian ryegrass; Preemergence, 250 g ai/ha",100
same,"Ryegrass, Italian plant response rating",Italian ryegrass; [6],100
same,"Foxtail, Green plant response rating",green foxtail; [4],100
same,"Foxtail, Green plant response rating",green foxtail; [5],100
same,"Plant response rating (0 to 100), Foxtail, Green","green foxtail; Postemergence, 31 g ai/ha",0
same,"Plant response rating, Foxtail, Green","green foxtail; Postemergence, 62 g ai/ha",0
same,"Plant response rating, Foxtail, Green","green foxtail; Postemergence, 125 g ai/ha",60
same,"Plant response rating, Foxtail, Green","green foxtail; Postemergence, 250 g ai/ha",65
same,"Plant response rating (0 to 100), Foxtail, Green","green foxtail; Preemergence, 250 g ai/ha",100
same,"Foxtail, Green plant response rating",green foxtail; [6],100
same,"Plant response rating, Purple Nutsedge","purple nutsedge; 8 g ai/ha, preemergence",30
same,Purple Nutsedge plant response rating,purple nutsedge; Preemergence,90
same,"Plant response rating, Purple Nutsedge","purple nutsedge; Preemergence, 16 g ai/ha",60
same,"Plant response rating, Purple Nutsedge","purple nutsedge; Preemergence, 31 g ai/ha",75
same,"Plant response rating, Johnsongrass","johnsongrass; 8 g ai/ha, preemergence",25
same,Johnsongrass plant response rating,johnsongrass; Preemergence,100
same,"Plant response rating, Johnsongrass","johnsongrass; Preemergence, 16 g ai/ha",50
same,"Plant response rating, Johnsongrass","johnsongrass; Preemergence, 31 g ai/ha",100
same,"Plant response rating, Goosegrass","goosegrass; 8 g ai/ha, preemergence",10
same,Goosegrass plant response rating,goosegrass; Preemergence,100
same,"Plant response rating, Goosegrass","goosegrass; Preemergence, 16 g ai/ha",85
same,"Plant response rating, Goosegrass","goosegrass; Preemergence, 31 g ai/ha",90
same,Velvetleaf plant response rating,velvetleaf; [1],60
same,Velvetleaf plant response rating,velvetleaf; [2],80
same,Velvetleaf plant response rating,velvetleaf; [3],90
same,"Plant response rating, Velvetleaf","velvetleaf; Preemergence, 500 g ai/ha",90
same,"Plant response rating, Dallisgrass","dallisgrass; 8 g ai/ha, preemergence",0
same,Dallisgrass plant response rating,dallisgrass; Preemergence,98
same,"Plant response rating, Dallisgrass","dallisgrass; Preemergence, 16 g ai/ha",65
same,"Plant response rating, Dallisgrass","dallisgrass; Preemergence, 31 g ai/ha",75
same,Barnyardgrass plant response rating,barnyardgrass; [1],80
same,Barnyardgrass plant response rating,barnyardgrass; [2],80
same,Barnyardgrass plant response rating,barnyardgrass; [3],70
same,"Plant response rating, Barnyardgrass","barnyardgrass; Preemergence, 500 g ai/ha",90
same,"Plant response rating, Signalgrass","broadleaf signalgrass; 8 g ai/ha, preemergence",0
same,"Plant response rating, Signalgrass","broadleaf signalgrass; 16 g ai/ha, preemergence",30
same,Signalgrass plant response rating,broadleaf signalgrass; Preemergence,75
same,"Plant response rating, Signalgrass","broadleaf signalgrass; Preemergence, 31 g ai/ha",35
same,"Plant response rating, Itchgrass","itchgrass; 8 g ai/ha, preemergence",10
same,Itchgrass plant response rating,itchgrass; Preemergence,90
same,"Plant response rating, Itchgrass","itchgrass; Preemergence, 16 g ai/ha",25
same,"Plant response rating, Itchgrass","itchgrass; Preemergence, 31 g ai/ha",35
same,Dayflower plant response rating,Virginia dayflower; Preemergence,100
same,"Plant response rating, Dayflower","Virginia dayflower; Preemergence, 16 g ai/ha",65
same,"Plant response rating, Dayflower","Virginia dayflower; Preemergence, 31 g ai/ha",90
same,"Plant response rating, Kochia","kochia; 8 g ai/ha, preemergence",0
same,Kochia plant response rating,kochia; Preemergence,40
same,"Plant response rating, Kochia","kochia; Preemergence, 16 g ai/ha",0
same,"Plant response rating, Kochia","kochia; Preemergence, 31 g ai/ha",0
same,"Plant response rating, Groundsel","common groundsel; 8 g ai/ha, preemergence",100
same,Groundsel plant response rating,common groundsel; Preemergence,100
same,"Plant response rating, Groundsel","common groundsel; Preemergence, 16 g ai/ha",100
same,"Plant response rating, Groundsel","common groundsel; Preemergence, 31 g ai/ha",100
